Test results reported in article PMC11544713, “The Application of Untargeted Metabolomic Approaches for the Search of Common Bioavailable Metabolites in Human Plasma Samples from Lippia citriodora and Olea europaea Extracts” (Journal of Agricultural and Food Chemistry, 2024).
Structures can show the parent of a compound that is named as a salt.

Key:
[1] = Acute intervention: nutrikinetics of plasma metabolites after ingestion of L. citriodora extract (untargeted HPLC-ESI-QTOF-MS)
Experimental: A total of 25 healthy individuals participated, with an average age of 27 ± 9 years and a mean body mass index (BMI) of 23 ± 3 kg/m^2. None of the participants were taking any medications or nutritional supplements nor did they have any chronic diseases or gastrointestinal issues. The sample size was established based on findings from previous bioavailability research.[14] All participants provided informed consent before participating in the study.
The intervention study was carried out at Miguel Hernández University. Following an overnight fast, the volunteers were categorized into the subsequent groups: a subgroup to evaluate the LC leaf extract (n = 8), another for the OE leaf extract (n = 8), and the placebo subgroup (n = 9). This was a double-blind study, in which sample collection and treatment were carried out uniformly across all three subgroups.
Water was provided ad libitum. Prior to the ingestion of the capsule, a nurse inserted a cannula into the ulnar vein of each volunteer’s nondominant arm, and blood samples were drawn into EDTA-coated tubes at baseline (t = 0). Blood samples were then collected at 0.5, 1, 2, 4, 6, 8, and 10 h after the consumption of the 500 mg capsule. Plasma was separated through centrifugation (10 min at 3000 rpm and 4 °C) and stored at −80 °C until further analysis.
Plasma samples were initially treated using a mixture of methanol and ethanol (50:50; v:v) to remove proteins, following previously reported protocols.[19] During the sample treatment, pooled quality controls (pooled-QC) were prepared by combining equal aliquots from each sample. These QC samples were processed by using the same protocols as the experimental biological samples.
A reversed-phase analytical C18 column (Agilent Zorbax Eclipse Plus, 1.8 μm, 4.6 × 150 mm^2) with a protective cartridge with the same packing was used. MS data were acquired in negative ionization mode, operating in full scan across a mass-to-charge ratio (m/z) range of 50–1700. The analytical method used was adapted from that described by Villegas-Aguilar et al.[19]
Metabolite nutrikinetics were studied using PKSolver, an add-in program for pharmacokinetic data analysis in Microsoft Excel. The time to reach the maximum concentration (observed Tmax) was calculated for each significant metabolite. As an untargeted metabolomic approach was used to detect the circulating metabolites, these were not quantified. Therefore, the maximum concentration (Cmax) and area under the curve (AUC) parameters were calculated in a relative way by using the deconvoluted chromatographic areas. […] Statistical differences were determined by unpaired t tests. All p values less than 0.05 were considered statistically significant.

[2] = Acute intervention: nutrikinetics of plasma metabolites after ingestion of O. europaea extract (untargeted HPLC-ESI-QTOF-MS)
Summary of the method: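 Fasted healthy volunteers (n = 8 per extract, placebo n = 9, double-blind) took one 500 mg capsule. Plasma was drawn at 0–10 h, protein-precipitated with methanol:ethanol and analysed by C18 HPLC-ESI-QTOF-MS in negative full scan (m/z 50–1700). Tmax was observed; Cmax and AUC are relative, from deconvoluted peak areas.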

[3] = 0.5 h after L. citriodora extract
[4] = 1 h after L. citriodora extract
[5] = 2 h after L. citriodora extract
[6] = 4 h after L. citriodora extract
[7] = 6 h after L. citriodora extract
[8] = 8 h after L. citriodora extract
[9] = 10 h after L. citriodora extract
[10] = human plasma, 500 mg capsule of L. citriodora (LC) extract, oral, mean ± SD
[11] = 0.5 h after O. europaea extract
[12] = human plasma, 500 mg capsule of O. europaea (OE) extract, oral, mean ± SD

Compound: COc1cc(CCO)ccc1OS(=O)(=O)O [homovanillyl alcohol sulfate]
- mean chromatographic area in plasma, T0.5 [1, 3]: 0
- mean chromatographic area in plasma, T1 [1, 4]: 0
- mean chromatographic area in plasma, T2 [1, 5]: 0
- mean chromatographic area in plasma, T4 [1, 6]: 45
- mean chromatographic area in plasma, T6 [1, 7]: 81
- mean chromatographic area in plasma, T8 [1, 8]: 76
- mean chromatographic area in plasma, T10 [1, 9]: 31
- AUC: area under the zero-moment curve [1, 10]: 437 ± 278 relative chromatographic area/h
- Cmax: relative maximum plasma level [1, 10]: 156 ± 49 relative chromatographic area
- observed Tmax: time required to reach Cmax [1, 10]: 7 ± 2 h
- mean chromatographic area in plasma, T0.5 [2, 11]: 0
- mean chromatographic area in plasma, T1 ([2]; 1 h after O. europaea extract): 94
- mean chromatographic area in plasma, T2 ([2]; 2 h after O. europaea extract): 111
- mean chromatographic area in plasma, T4 ([2]; 4 h after O. europaea extract): 61
- mean chromatographic area in plasma, T6 ([2]; 6 h after O. europaea extract): 0
- mean chromatographic area in plasma, T8 ([2]; 8 h after O. europaea extract): 0
- mean chromatographic area in plasma, T10 ([2]; 10 h after O. europaea extract): 0
- Cmax: relative maximum plasma level [2, 12]: 135 ± 32 relative chromatographic area
- observed Tmax: time required to reach Cmax [2, 12]: 2.0 ± 0.9 h

Compound: COc1cc(CC(=O)O)ccc1OS(=O)(=O)O [homovanillic acid sulfate isomer 1, homovanillic acid sulfate]
- AUC: area under the zero-moment curve ([1]; human, in vivo, po, 500 mg): 1391 ± 1144 relative chromatographic area/h
- Cmax: relative maximum plasma level ([1]; human, in vivo, po, 500 mg): 341 ± 164 relative chromatographic area
- mean chromatographic area in plasma, T0.5 ([1]; in vivo): 0
- mean chromatographic area in plasma, T1 ([1]; in vivo): 0
- mean chromatographic area in plasma, T2 ([1]; in vivo): 19
- mean chromatographic area in plasma, T4 ([1]; in vivo): 147
- mean chromatographic area in plasma, T6 ([1]; in vivo): 209
- mean chromatographic area in plasma, T8 ([1]; in vivo): 221
- mean chromatographic area in plasma, T10 ([1]; in vivo): 207
- Cmax: relative maximum plasma level ([2]; human, in vivo, po, 500 mg): 233 ± 69 relative chromatographic area
- mean chromatographic area in plasma, T0.5 ([2]; in vivo): 65
- mean chromatographic area in plasma, T1 ([2]; in vivo): 212
- mean chromatographic area in plasma, T2 ([2]; in vivo): 192
- mean chromatographic area in plasma, T4 ([2]; in vivo): 165
- mean chromatographic area in plasma, T6 ([2]; in vivo): 119
- mean chromatographic area in plasma, T8 ([2]; in vivo): 108
- mean chromatographic area in plasma, T10 ([2]; in vivo): 75

Compound: COc1cc(C(=O)O)ccc1OS(=O)(=O)O [vanillic acid 4-O-sulfate isomer 1, vanillic acid 4-O-sulfate]
- mean chromatographic area in plasma, T0.5 [1, 3]: 0
- mean chromatographic area in plasma, T1 [1, 4]: 0
- mean chromatographic area in plasma, T2 [1, 5]: 97
- mean chromatographic area in plasma, T4 [1, 6]: 395
- mean chromatographic area in plasma, T6 [1, 7]: 548
- mean chromatographic area in plasma, T8 [1, 8]: 588
- mean chromatographic area in plasma, T10 [1, 9]: 365
- AUC: area under the zero-moment curve [1, 10]: 3576 ± 3122 relative chromatographic area/h
- Cmax: relative maximum plasma level [1, 10]: 874 ± 644 relative chromatographic area
- observed Tmax: time required to reach Cmax [1, 10]: 8 ± 3 h
- mean chromatographic area in plasma, T0.5 [2, 11]: 275
- mean chromatographic area in plasma, T1 ([2]; 1 h after O. europaea extract): 489
- mean chromatographic area in plasma, T2 ([2]; 2 h after O. europaea extract): 354
- mean chromatographic area in plasma, T4 ([2]; 4 h after O. europaea extract): 279
- mean chromatographic area in plasma, T6 ([2]; 6 h after O. europaea extract): 216
- mean chromatographic area in plasma, T8 ([2]; 8 h after O. europaea extract): 137
- mean chromatographic area in plasma, T10 ([2]; 10 h after O. europaea extract): 60
- Cmax: relative maximum plasma level [2, 12]: 489 ± 147 relative chromatographic area
- observed Tmax: time required to reach Cmax [2, 12]: 1.0 ± 0.0 h

Compound: homovanillic acid glucuronide
- AUC: area under the zero-moment curve ([1]; human, in vivo, po, 500 mg): 1345 ± 1042 relative chromatographic area/h
- Cmax: relative maximum plasma level ([1]; human, in vivo, po, 500 mg): 360 ± 219 relative chromatographic area
- mean chromatographic area in plasma, T0.5 ([1]; in vivo): 0
- mean chromatographic area in plasma, T1 ([1]; in vivo): 0
- mean chromatographic area in plasma, T2 ([1]; in vivo): 0
- mean chromatographic area in plasma, T4 ([1]; in vivo): 114
- mean chromatographic area in plasma, T6 ([1]; in vivo): 232
- mean chromatographic area in plasma, T8 ([1]; in vivo): 219
- mean chromatographic area in plasma, T10 ([1]; in vivo): 214
- Cmax: relative maximum plasma level ([2]; human, in vivo, po, 500 mg): 199 ± 54 relative chromatographic area
- mean chromatographic area in plasma, T0.5 ([2]; in vivo): 13
- mean chromatographic area in plasma, T1 ([2]; in vivo): 94
- mean chromatographic area in plasma, T2 ([2]; in vivo): 99
- mean chromatographic area in plasma, T4 ([2]; in vivo): 182
- mean chromatographic area in plasma, T6 ([2]; in vivo): 141
- mean chromatographic area in plasma, T8 ([2]; in vivo): 80
- mean chromatographic area in plasma, T10 ([2]; in vivo): 58

Compound: COc1cc(C=CC(=O)O)ccc1OS(=O)(=O)O [ferulic acid 4-sulfate]
- mean chromatographic area in plasma, T0.5 [1, 3]: 33
- mean chromatographic area in plasma, T1 [1, 4]: 131
- mean chromatographic area in plasma, T2 [1, 5]: 259
- mean chromatographic area in plasma, T4 [1, 6]: 230
- mean chromatographic area in plasma, T6 [1, 7]: 222
- mean chromatographic area in plasma, T8 [1, 8]: 152
- mean chromatographic area in plasma, T10 [1, 9]: 39
- AUC: area under the zero-moment curve [1, 10]: 1752 ± 1781 relative chromatographic area/h
- Cmax: relative maximum plasma level [1, 10]: 354 ± 254 relative chromatographic area
- observed Tmax: time required to reach Cmax [1, 10]: 3 ± 2 h
- mean chromatographic area in plasma, T0.5 [2, 11]: 0
- mean chromatographic area in plasma, T1 ([2]; 1 h after O. europaea extract): 78
- mean chromatographic area in plasma, T2 ([2]; 2 h after O. europaea extract): 84
- mean chromatographic area in plasma, T4 ([2]; 4 h after O. europaea extract): 22
- mean chromatographic area in plasma, T6 ([2]; 6 h after O. europaea extract): 18
- mean chromatographic area in plasma, T8 ([2]; 8 h after O. europaea extract): 0
- mean chromatographic area in plasma, T10 ([2]; 10 h after O. europaea extract): 0
- Cmax: relative maximum plasma level [2, 12]: 142 ± 20 relative chromatographic area
- observed Tmax: time required to reach Cmax [2, 12]: 1.6 ± 0.5 h

Compound: OCCc1ccc(O)c(O)c1 [hydroxytyrosol]
- AUC of the sulfated form compared to the glucuronidated form ([1]; human, in vivo): about 10 times
- detection in plasma samples ([2]; in vivo): detected in plasma samples
